According to US9605013B2, “Derivatives of hemin with antibacterial and antiviral activity” (OBSCHESTVO S OGRANICHENNOI OTVETSTVENNOSTIYU …, priority 2011, dated 2017):

Test system: Herpes Simplex Virus type 1 strain EC
Assay: Antiviral activity, virus cytopathogenic action in Vero cells
Type: cell-based
Parameters: key: 0: CPA (cytopathogenic action) is not detected; 1: up to 25% virus-infected monolayer; from 25% to 50%; 3: from 50% to 75%; 4: from 75% to 100%
Settings: 48 hours
[1] = HSV-1, virus dose 1, concentration 0.1 μM
[2] = HSV-1, virus dose 1, concentration 1 μM
[3] = HSV-1, virus dose 1, concentration 10 μM
[4] = HSV-1, virus dose 10, concentration 0.1 μM
[5] = HSV-1, virus dose 10, concentration 1 μM
[6] = HSV-1, virus dose 10, concentration 10 μM
[7] = HSV-1, virus dose 100, concentration 0.1 μM
[8] = HSV-1, virus dose 100, concentration 1 μM
[9] = HSV-1, virus dose 100, concentration 10 μM

Row | Molecule | manifestation of the virus CPA [1] | manifestation of the virus CPA [2] | manifestation of the virus CPA [3] | manifestation of the virus CPA [4] | manifestation of the virus CPA [5] | manifestation of the virus CPA [6] | manifestation of the virus CPA [7] | manifestation of the virus CPA [8] | manifestation of the virus CPA [9]
1 | 6,7-bis-(Amide N^α-Glycyl)-Protohemin (IX) [IV] | 1 (up to 25% virus-infected monolayer) | 1 (up to 25% virus-infected monolayer) | 0^1 | 2 (from 25% to 50%) | 2 (from 25% to 50%) | 0^1 | 3 (from 50% to 75%) | 3 (from 50% to 75%) | 2^1 (from 25% to 50%)
2 | C=CC1=C(C)c2cc3[n-]c(cc4[n-]c(cc5nc(cc1n2)C(C)=C5C=C)c(C)c4CCC(=O)N[C@@H](CO)C(=O)O)c(CCC(=O)N[C@@H](CO)C(=O)O)c3C.[Cl-].[Fe+3] [VI, 6,7-bis-(N^α-Seryl]-Protohemin (IX)] | 0^1 | 0^1 | 0^1 | 2 (from 25% to 50%) | 2 (from 25% to 50%) | 2^ (from 25% to 50%) | 3 (from 50% to 75%) | 3.3 scores | 3 (from 50% to 75%)
